Laboratory results: paper PMC6150413 (Molecules : A Journal of Synthetic Chemistry and Natural …, 2017)
Ends that are not written are not given here. Peptide text beside a SMILES is read from it.

Key:
[1] = parameters: method as in PMID 9038346; settings: salt from 50 to 125 mmol/L; cited from earlier work
[2] = tested on: S. aureus; settings: cited from earlier work
[3] = tested on: P. aeruginosa; settings: cited from earlier work
[4] = tested on: E. coli; settings: cited from earlier work
[5] = tested on: E. coli ATCC 25922; settings: ATCC 25922, 2 h
Method: (§1) The antimicrobial activities of VIP and its analogues were tested against S. aureus ATCC 25923 and E. coli ATCC 25922 according to the method reported by Wani et al. with slight modification. The final peptide concentrations ranged from 0.5 to 256 μM. The tests were performed in triplicate using 4 replicates for each experiment. In addition, S. aureus ATCC 25923 and E. coli ATCC 25922 (2 × 10^6 CFU/mL) were treated with natural VIP and VIP8 at MIC for 2 h. […] The haemolytic activity of VIP and VIP derivatives were measured using porcine erythrocytes according to previous method. MTT (3-[4,5 dimethylthiozol-2-yl]-2,5-diphenyltetrazolium bromide) was used to determine the cytotoxicity of VIP and its analogue on porcine intestinal epithelial cells IPEC-J2. Stable experiments were conducted with reference to the literature with slightly changes. First, the pH of the mediums was adjusted to acidic (pH 4.0, pH 5.0, and pH 6.0) and basic (pH 8.0, pH 9.0, and pH 10.0) conditions. To investigate the effects of ion strength, the bacterial mediums were supplemented with different concentrations of NaCl (20 mM, 60 mM, and 180 mM) or MgCl2 (1 mM, 25 mM, and 50 mM). Then, bacteria were incubated with VIP, VIP analogues 2 and 8, respectively. After 3 h of incubation, bacterial viability was measured with a Synergy HT multimode reader (BioTek, Winooski, VT, USA) at 600 nm.
(§2) Both the agar diffusion test and modified broth microdilution method were used to evaluate the antimicrobial activity of recombinant expressed VIP8. For the Oxford cup agar diffusion, the sample was added to an Oxford cup, which was then placed on a Mueller-Hinton agar plate containing 1 × 10^5 colony-forming units of S. aureus […]. Chemically-synthesized VIP8 and ampicillin were used as the positive control. The minimal inhibition concentration was determined by the method reported by Wani et al..

[6] = tested on: S. aureus ATCC 25923; settings: ATCC 25923, 2 h
Method: as §1, §2

[7] = tested on: 3T3-L1 cells

human β-defensin 1 (DHYNCVSSGGQCLYSACPIFTKIQGTCYRGKAKCCK; ends and bridges not checked; cysteine pairing not given here; UniProt P60022 33-68, looked up) [hBD-1, human β-defensin quoted from the literature]
Activity remaining at raised salt concentration [1]: 12%

human β-defensin 4 (EFELDRICGYGTARCRKKCRSQEYRIGRCPNTYACCLRKWDESLLNRTKP; ends and bridges not checked; cysteine pairing not given here; UniProt Q8WTQ1 23-72, looked up) [hBD-4, human β-defensin quoted from the literature]
Antimicrobial activity at high concentrations of NaCl [2]: attenuated | Antimicrobial activity at high concentrations of NaCl [3]: attenuated | Antimicrobial activity at high concentrations of NaCl [4]: attenuated

CC[C@H](C)[C@H](NC(=O)[C@H](C)NC(=O)[C@H](C)NC(=O)[C@H](CC(C)C)NC(=O)[C@H](Cc1ccc(O)cc1)NC(=O)[C@H](CCCNC(=N)N)NC(=O)[C@H](CCCNC(=N)N)NC(=O)[C@@H](NC(=O)[C@H](C)NC(=O)[C@H](CC(C)C)NC(=O)[C@H](CCC(N)=O)NC(=O)[C@H](CCCNC(=N)N)NC(=O)[C@H](CCCNC(=N)N)NC(=O)[C@H](CC(C)C)NC(=O)[C@H](CCCNC(=N)N)NC(=O)[C@@H](NC(=O)[C@H](Cc1ccc(O)cc1)NC(=O)[C@H](CC(N)=O)NC(=O)[C@H](C)NC(=O)[C@@H](NC(=O)[C@@H](N)Cc1ccccc1)[C@@H](C)O)[C@@H](C)O)C(C)C)C(=O)N[C@@H](CC(C)C)C(=O)NCC(=O)N[C@@H](CCCNC(=N)N)C(=O)N[C@@H](CCCNC(=N)N)C(=O)O [VIP8] (H-FTANYTRLRRQLAVRRYLAAILGRR-OH)
MBC (minimum bactericidal concentration) [5]: 4 µM | MIC (minimum inhibitory concentration) [5]: 2 µM | MBC (minimum bactericidal concentration) [6]: 4 µM | MIC (minimum inhibitory concentration) [6]: 2 µM | Cytotoxicity (in words) [7]: no cytotoxicity
